Laboratory results: paper PMC6539903 (Molecules, 2019)

What was measured:
COX-1 = molecular target: T1, COX-1 (Homo sapiens, UniProt P23219); test: COX-1 inhibition assay (COX-1 ELISA kit); type: biochemical; conditions: mean of four determinations; read-out: IC50 ± SD COX-1
T1 construct: purchased Cayman Chemical 701170
Procedure: (§1) 3-(4,5-Dimethylthiazol-2-yl)-2,5-diphenyltetrazolium (MTT) were purchased from Beyotime Institute of Biotechnology (Haimen, China). Annexcin V-FITC cell apoptosis assay kit (catalog No.BA11100) was purchased from BIO-BOX (Nanjing, China). Fibronectin (#F1056) and laminin (#L2020) were purchased from Sigma-Aldrich (St. Louis, MO, USA).
(§2) Then 1 M HCl was added to the reaction mixture to stop the reaction, and one-tenth of the volume of saturated stannous chloride (50 mg/mL) was added. The reaction mixture was incubated at room temperature for 5 min, and PGF2 and PGH2 were produced.

COX-2 = molecular target: T2, COX-2 (Homo sapiens, UniProt P35354); test: COX-2 inhibition assay (COX-2 ELISA kit); type: biochemical; conditions: for Selectivity Index (SI) (COX-1 IC50/COX-2 IC50): in vitro COX-2 selectivity index; for IC50: mean of four determinations, read-out: IC50 ± SD COX-2
T2 construct: purchased Cayman Chemical 701180
T2 sequence (P35354 18-604): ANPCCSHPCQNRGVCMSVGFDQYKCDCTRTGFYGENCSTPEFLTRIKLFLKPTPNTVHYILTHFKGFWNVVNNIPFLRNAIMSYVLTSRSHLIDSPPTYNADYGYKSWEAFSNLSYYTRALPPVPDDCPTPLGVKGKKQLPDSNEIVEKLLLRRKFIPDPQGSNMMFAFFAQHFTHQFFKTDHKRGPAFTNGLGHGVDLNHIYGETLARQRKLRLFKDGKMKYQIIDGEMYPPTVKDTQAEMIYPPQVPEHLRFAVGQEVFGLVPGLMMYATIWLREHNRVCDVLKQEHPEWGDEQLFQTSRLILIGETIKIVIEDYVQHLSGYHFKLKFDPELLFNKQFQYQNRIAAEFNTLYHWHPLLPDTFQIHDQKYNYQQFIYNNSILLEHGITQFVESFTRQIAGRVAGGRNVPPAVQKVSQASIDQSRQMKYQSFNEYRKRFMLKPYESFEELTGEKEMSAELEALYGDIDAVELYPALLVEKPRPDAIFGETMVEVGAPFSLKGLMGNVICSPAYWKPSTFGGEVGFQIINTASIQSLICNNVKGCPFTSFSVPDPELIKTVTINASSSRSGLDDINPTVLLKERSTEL
Procedure: as §1, §2

SW620 cells = test: MTT antiproliferation assay, SW620; type: cell-based; conditions: Homo sapiens, SW-620, 48 h, n = 3, read-out: IC50 ± SD SW620
Procedure: (§3) MCF-7 (human breast cell line), HeLa (human cervical cell line), A549 (human lung cell line), HepG2 (human liver cell line), SW620 (human colorectal cell line) and a non-cancer cell line, NCM460 (Human colonic epithelial cells) were preserved at the State Key Laboratory of Pharmaceutical Biotechnology, Nanjing University (Nanjing, China).
(§4) The antiproliferative activity of the synthetic compounds against the SW620, MCF-7, HeLa, A549, HepG2, and NUM460 cell lines was evaluated by a colorimetric assay based on a modified standard (MTT). […] Thereafter, MTT (5 mg/mL in PBS) was added to each well and incubated for 4 h. 150 μL of DMSO was added to each well and shaken with a shaker. The absorbance (OD 570 nm) was read at 630 nm on an ELISA reader (ELx800, BioTek, montpelier, VT, USA). IC50 values for the compounds were calculated by comparison to DMSO treated control wells. Three replicate wells were used for each drug concentration. Each assay was performed three times.

MCF-7 = test: MTT antiproliferation assay, MCF-7; type: cell-based; conditions: Homo sapiens, MCF7, 48 h, n = 3, read-out: IC50 ± SD MCF-7
Procedure: as §3, §4

HeLa = test: MTT antiproliferation assay, HeLa; type: cell-based; conditions: Homo sapiens, 48 h, n = 3, read-out: IC50 ± SD HeLa
Procedure: as §3, §4

A549 = test: MTT antiproliferation assay, A549; type: cell-based; conditions: Homo sapiens, 48 h, n = 3, read-out: IC50 ± SD A549
Procedure: as §3, §4

HepG2 = test: MTT antiproliferation assay, HepG2; type: cell-based; conditions: Homo sapiens, 48 h, n = 3, read-out: IC50 ± SD HepG2
Procedure: as §3, §4

[1] = MTT cytotoxicity assay, non-cancer colon cells; type: cell-based; conditions: human, NCM460 colonic epithelial cells (non-cancer cell line), n = 3, non-cancer cell line, read-out: CC50 ± SD NUM460
Procedure: Besides, the MTT assay was performed on a non-cancer line NCM460 to assess the cytotoxicity of the test compound to normal colon cells.
as §3, §4

T1 sequence (P23219 24-599): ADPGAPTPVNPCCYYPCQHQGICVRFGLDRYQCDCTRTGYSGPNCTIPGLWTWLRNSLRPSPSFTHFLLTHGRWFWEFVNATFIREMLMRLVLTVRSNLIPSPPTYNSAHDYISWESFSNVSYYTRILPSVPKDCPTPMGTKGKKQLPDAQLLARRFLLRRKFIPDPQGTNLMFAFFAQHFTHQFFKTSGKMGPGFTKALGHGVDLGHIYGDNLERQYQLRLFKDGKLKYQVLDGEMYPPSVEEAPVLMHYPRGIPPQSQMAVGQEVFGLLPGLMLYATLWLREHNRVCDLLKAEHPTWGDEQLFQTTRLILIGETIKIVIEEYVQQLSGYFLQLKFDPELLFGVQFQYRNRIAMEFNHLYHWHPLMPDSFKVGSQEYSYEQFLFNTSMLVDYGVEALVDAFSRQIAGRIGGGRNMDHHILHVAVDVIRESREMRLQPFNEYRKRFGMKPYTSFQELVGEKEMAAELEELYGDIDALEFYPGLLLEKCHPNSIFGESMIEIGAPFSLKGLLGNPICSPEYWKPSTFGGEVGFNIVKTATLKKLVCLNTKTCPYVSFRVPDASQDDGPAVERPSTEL

Compound | IC50 (COX-1) | Selectivity Index (SI) (COX-1 IC50/COX-2 IC50) (COX-2) | IC50 (SW620 cells) | IC50 (MCF-7) | IC50 (HeLa) | IC50 (A549) | IC50 (HepG2) | melting point | IC50 (COX-2) | CC50 at 48 h [1]
NS(=O)(=O)c1ccc(N2N=C(c3cccc(F)c3)CC2c2ccc3c(c2)OCO3)cc1 (stereo not drawn) [Compound 4h, 4-(5-(Benzo[d][1,3]dioxol-5-yl)-3-(3-fluorophenyl)-4,5-dihydro-1H-pyrazol-1-yl)benzenesulfonamide] | 52.91 ± 0.39 µM | 41.33 | 3.24 ± 0.18 µM | 5.56 ± 0.38 µM | 6.07 ± 0.41 µM | 3.26 ± 0.29 µM | 7.14 ± 0.66 µM | 192 to 193 °C | 1.28 ± 0.07 µM | 82.8 ± 7.59 µM
COc1ccc(C2=NN(c3ccc(S(N)(=O)=O)cc3)C(c3ccc4c(c3)OCCO4)C2)cc1 (stereo not drawn) [Compound 4m, 4-(5-(2,3-Dihydrobenzo[b][1,4]dioxin-6-yl)-3-(4-methoxyphenyl)-4,5-dihydro-1H-pyrazol-1-yl)benzenesulfonamide] | > 60 µM | >39.47 | 3.88 ± 0.37 µM | 6.52 ± 0.33 µM | 7.22 ± 0.19 µM | 4.54 ± 0.29 µM | 9.44 ± 0.77 µM | 207 to 208 °C | 1.52 ± 0.09 µM | 110 ± 7.42 µM
Cc1ccc(C2=NN(c3ccc(S(N)(=O)=O)cc3)C(c3ccc4c(c3)OCO4)C2)c(C)c1 (stereo not drawn) [Compound 4i, 4-(5-(Benzo[d][1,3]dioxol-5-yl)-3-(2,4-dimethylphenyl)-4,5-dihydro-1H-pyrazol-1-yl)benzenesulfonamide] | > 60 µM | >30.30 | 4.96 ± 0.38 µM | 8.14 ± 0.69 µM | 9.16 ± 0.37 µM | 6.71 ± 0.57 µM | 13.3 ± 0.89 µM | 180 to 182 °C | 1.98 ± 0.15 µM | 155 ± 12.7 µM
NS(=O)(=O)c1ccc(N2N=C(c3ccc(I)cc3)CC2c2ccc3c(c2)OCO3)cc1 (stereo not drawn) [Compound 4d, 4-(5-(Benzo[d][1,3]dioxol-5-yl)-3-(4-iodophenyl)-4,5-dihydro-1H-pyrazol-1-yl)benzenesulfonamide] | 25.84 ± 0.21 µM | 21.53 | 3.04 ± 0.17 µM | 5.26 ± 0.42 µM | 5.71 ± 0.47 µM | 2.86 ± 0.06 µM | 6.42 ± 0.25 µM | 212 to 214 °C | 1.2 ± 0.05 µM | 74.5 ± 5.23 µM
COc1cccc(C2=NN(c3ccc(S(N)(=O)=O)cc3)C(c3ccc4c(c3)OCO4)C2)c1 (stereo not drawn) [Compound 4g, 4-(5-(Benzo[d][1,3]dioxol-5-yl)-3-(3-methoxyphenyl)-4,5-dihydro-1H-pyrazol-1-yl)benzenesulfonamide] | > 60 µM | >18.87 | 7.99 ± 0.56 µM | 12.7 ± 0.89 µM | 14.6 ± 0.96 µM | 9.42 ± 0.74 µM | 18.2 ± 1.15 µM | 219 to 221 °C | 3.18 ± 0.26 µM | 211 ± 18.2 µM
NS(=O)(=O)c1ccc(N2N=C(c3ccccc3)CC2c2ccc3c(c2)OCO3)cc1 (stereo not drawn) [Compound 4a, 4-(5-(Benzo[d][1,3]dioxol-5-yl)-3-phenyl-4,5-dihydro-1H-pyrazol-1-yl)benzenesulfonamide] | > 60 µM | >44.44 | 3.38 ± 0.27 µM | 5.77 ± 0.39 µM | 6.32 ± 0.55 µM | 3.54 ± 0.19 µM | 7.64 ± 0.57 µM | 212 to 214 °C | 1.35 ± 0.08 µM | 88.6 ± 3.96 µM
CCOc1ccc(C2=NN(c3ccc(S(N)(=O)=O)cc3)C(c3ccc4c(c3)OCO4)C2)cc1 (stereo not drawn) [Compound 4c, 4-(5-(Benzo[d][1,3]dioxol-5-yl)-3-(4-ethoxyphenyl)-4,5-dihydro-1H-pyrazol-1-yl)benzenesulfonamide] | 21.11 ± 0.19 µM | 10.45 | 5.07 ± 0.26 µM | 8.31 ± 0.67 µM | 9.37 ± 0.9 µM | 6.93 ± 0.17 µM | 13.7 ± 0.93 µM | 182 to 184 °C | 2.02 ± 0.13 µM | 159 ± 11.4 µM
CCOc1ccc(C2=NN(c3ccc(S(N)(=O)=O)cc3)C(c3ccc4c(c3)OCCO4)C2)cc1 (stereo not drawn) [Compound 4n, 4-(5-(2,3-Dihydrobenzo[b][1,4]dioxin-6-yl)-3-(4-ethoxyphenyl)-4,5-dihydro-1H-pyrazol-1-yl)benzenesulfonamide] | > 60 µM | >24.59 | 6.12 ± 0.49 µM | 9.88 ± 0.86 µM | 11.2 ± 0.86 µM | 6.81 ± 0.55 µM | 13.5 ± 0.59 µM | 193 to 194 °C | 2.44 ± 0.19 µM | 157 ± 9.98 µM

Further lines, with some results ahead:

IC50 (COX-1) | Selectivity Index (SI) (COX-1 IC50/COX-2 IC50) (COX-2) | IC50 (SW620 cells) | IC50 (MCF-7) | IC50 (HeLa) | IC50 (A549) | IC50 (HepG2) | melting point | IC50 (COX-2) | Compound | CC50 at 48 h [1]
41.18 ± 0.17 µM | 47.33 | 2.17 ± 0.05 µM | 3.95 ± 0.18 µM | 4.14 ± 0.21 µM | 3.12 ± 0.08 µM | 3.28 ± 0.17 µM | 187 to 189 °C | – | NS(=O)(=O)c1ccc(N2N=C(c3ccc(I)cc3)CC2c2ccc3c(c2)OCCO3)cc1 (stereo not drawn) [Compound 4r, 4-(5-(2,3-Dihydrobenzo[b][1,4]dioxin-6-yl)-3-(4-iodophenyl)-4,5-dihydro-1H-pyrazol-1-yl)benzenesulfonamide] | 38 ± 1.19 µM
37.32 ± 0.18 µM | 26.46 | 3.53 ± 0.16 µM | 5.99 ± 0.38 µM | 6.58 ± 0.49 µM | 3.83 ± 0.26 µM | 8.16 ± 0.63 µM | 146 to 148 °C | 1.41 ± 0.07 µM | NS(=O)(=O)c1ccc(N2N=C(c3ccc(Cl)cc3)CC2c2ccc3c(c2)OCCO3)cc1 (stereo not drawn) [Compound 4p, 4-(3-(4-Chlorophenyl)-5-(2,3-dihydrobenzo[b][1,4]dioxin-6-yl)-4,5-dihydro-1H-pyrazol-1-yl)benzenesulfonamide] | 94.7 ± 3.65 µM
> 60 µM | >33.52 | 4.48 ± 0.24 µM | 7.42 ± 0.63 µM | 8.34 ± 0.69 µM | 5.78 ± 0.16 µM | 11.7 ± 0.86 µM | 168 to 169 °C | 1.79 ± 0.13 µM | NS(=O)(=O)c1ccc(N2N=C(c3ccc(F)cc3F)CC2c2ccc3c(c2)OCCO3)cc1 (stereo not drawn) [Compound 4z, 4-(3-(2,4-Difluorophenyl)-5-(2,3-dihydrobenzo[b][1,4]dioxin-6-yl)-4,5-dihydro-1H-pyrazol-1-yl)benzenesulfonamide] | 135 ± 9.63 µM
> 60 µM | >31.09 | 4.84 ± 0.27 µM | 7.96 ± 0.55 µM | 8.95 ± 0.39 µM | 6.47 ± 0.29 µM | 12.9 ± 0.99 µM | 200 to 201 °C | 1.93 ± 0.08 µM | NS(=O)(=O)c1ccc(N2N=C(c3cccc(F)c3)CC2c2ccc3c(c2)OCCO3)cc1 (stereo not drawn) [Compound 4v, 4-(5-(2,3-Dihydrobenzo[b][1,4]dioxin-6-yl)-3-(3-fluorophenyl)-4,5-dihydro-1H-pyrazol-1-yl)benzenesulfonamide] | 150 ± 6.94 µM
– | – | – | – | – | – | – | 171 to 173 °C | – | NS(=O)(=O)c1ccc(N2N=C(c3cccc(Cl)c3Cl)CC2c2ccc3c(c2)OCCO3)cc1 (stereo not drawn) [Compound 4x, 4-(3-(2,3-Dichlorophenyl)-5-(2,3-dihydrobenzo[b][1,4]dioxin-6-yl)-4,5-dihydro-1H-pyrazol-1-yl)benzenesulfonamide] | –
